Data published in US4064260A, “Anti-inflammatory diarylimidazothiazoles and their corresponding S-oxides” (E. I. Du Pont de Nemours and Company, priority 1976, dated 1977).

Legend:
[1] = tested on: Adjuvant-Induced Arthritis in Rats; assay: Established Adjuvant-Induced Arthritis in Rats (paw volume); format: in vivo, Charles River Lewis male rats; details: 24 h; rat; oral; dosed that day and 6 following days; ED50% decrease from control paw volume (uninjected left hind paw), one day after last dose
Experimental: A standard procedure for detecting and comparing the anti-inflammatory activity of compounds in this series for which there is good correlation with human efficacy is the adjuvant-induced arthritis test in rats.
Established Adjuvant-Induced Arthritis in Rats
Charles River Lewis male rats (130-150 grams) are injected subcutaneously in the plantar area of the right hind paw with 0.1 ml of adjuvant (Difco heat-killed, lyophilized Myobacterium butyricum suspended in mineral oil 5 mg./ml.). 20 Non-arthritic controls are injected with mineral oil. The animals are held for 2 weeks to allow development of arthritis. Paw volumes (uninjected, left hand paw) are measured and the adjuvant injected rats are culled and distributed to treatment groups of 10 of equal disease severity. Non-arthritic controls are distributed to 2 groups of 10. The rats are given oral doses of compound or PVA-Acacia (10 ml./kg.) on that day and on the 6 following days. One day after the last dose the paw volumes (uninjected, left hind paw) are measured using a Ugo Basile Volume Differential Meter Model 7101. [formula]
Dose-response regression lines of the % decrease are plotted on semi-log paper by visual fit and the ED50% decrease from control paw volume is determined by inspection.

[2] = tested on: phenylquinone writhing in mice; assay: phenylquinone writhing test in mice (analgesic); format: in vivo, Carworth CF-lS male mice; details: po; mouse; intubated in 0.5% methylcellulose; phenylquinone 1.25 mg/kg i.p. 30 min later; observed 30-40 min after antagonist
Experimental: An equally reliable test that is used for testing analgesic activity of compounds is the phenylquinone writhing test in mice.
Writhing was caused in mice by the intraperitoneal injection of phenyl-p-benzoquinone (Siegmund, E., Cadmus, R., Lu, G., Proc. Soc. Exp. Biol, and Med., 95, 729, 1957).
Groups of 10 or more Carworth CF-lS male mice, 18-21 g each, were fasted 17-21 hours and were intubated with the writhing antagonist at several dose levels in 0.5% methylcellulose. 30 Minutes later the mice were challenged with phenylquinone (1.25 mg./kg., i.p., dissolved in ethanol and diluted to 5% ethanol with distilled water at 40° C.). […] ED50' s were obtained by the Litchfield and Wilcoxon Method (Litchfield, J. T. and Wilcoxon, F., J.P.E.T., 96, 99 1949) and the Weil moving average method (Weil, C., Biometrics, 8 ,249 1952). Peak time studies were also done with some of these compounds and their peak time ED50' s were recorded.

| SMILES | ED50 [1] [mg/kg] | ED50 [2] [mg/kg] |
| --- | --- | --- |
| COc1ccc(-c2nc3n(c2-c2ccc(OC)cc2)C(F)C(F)(F)S3)cc1 (stereo not shown) [0 F F H F, 2,3-Dihydro-2,2,3-trifluoro-5,6-bis(p-methoxyphenyl)imidazo-[2,1-b]thiazole] | 11 | – |
| COc1ccc(-c2nc3n(c2-c2ccc(OC)cc2)CC[S+]3[O-])cc1 (stereo not shown) [1 H H H H, 2,3-Dihydro-5,6-bis(p-methoxyphenyl)imidazo[2,1-b]thiazole S-oxide] | 7.4 | 8.7 |
| COc1ccc(-c2nc3n(c2-c2ccc(OC)cc2)CCS3(=O)=O)cc1 [2 H H H H, 2,3-Dihydro-5,6-bis(p-methoxyphenyl)imidazo[2,1-b]thiazole S,S-dioxide] | 8 | > 130 |
| COc1ccc(-c2nc3n(c2-c2ccc(OC)cc2)CCS3)cc1 [0 H H H H, 2,3-Dihydro-5,6-bis(p-methoxyphenyl)imidazo[2,1-b]thiazole] | 5.5 | 64 |
